By MIC is commonly meant the least concentration at which growth counts as inhibited. What is called ED50 is the midpoint of the dose-response relation. Low values mean an effect at a small dose, high ones a need for a large dose.

≈ marks a conversion by molar mass, not a printed value. A value given as a limit tells only on which side of the number the result lay.

These results are taken from ChEMBL document CHEMBL1128625, “Synthesis and antibacterial activity of cephalosporins having C-3 catechol-containing (pyridinium-4-thio)-methyl groups” (1995).

The test system of one assay is Escherichia coli. Description: In vitro antibacterial activity against Escherichia coli NIHJ JC-2 bacteria. In kind it is functional.
In assay [1] the test system is Pseudomonas aeruginosa. Nature of the assay: In vitro antibacterial activity against Pseudomonas aeruginosa ATCC 10145 bacteria. Type of assay: functional.
The subject of assay [2] is Pseudomonas aeruginosa. Nature of the assay: In vitro antibacterial activity against Pseudomonas aeruginosa NCTC-10490 bacteria. Type of assay: functional.
In another assay the test system is Staphylococcus aureus. Nature of the assay: In vitro antibacterial activity against Staphylococcus aureus FDA 209P bacteria. In kind it is functional.
Assay [3] deals with Mus musculus. Nature of the assay: In vivo therapeutic efficacy against systemic infections in mice using Pseudomonas aeruginosa E-2 as a test organism. Type of assay: functional.
For assay [4], the species on record is Mus musculus. Nature of the assay: Challenged dose in mouse infected with Pseudomonas aeruginosa E-2. In kind it is functional.
Assay [5] deals with Pseudomonas aeruginosa. Nature of the assay: In vivo therapeutic efficacy against systemic infections in mice using Pseudomonas aeruginosa E-2 as a test organism.
Assay [6] concerns Mus musculus. Nature of the assay: In vivo therapeutic efficacy against systemic infections in mice using Pseudomonas aeruginosa E-2 as a test organism. In kind it is functional.

On to `CC(C)(O/N=C(\C(=O)N[C@@H]1C(=O)N2C(C(=O)[O-])=C(CSc3cc[n+](CC(=O)c4ccc(O)c(O)c4)cc3)CS[C@H]12)c1csc(N)n1)C(=O)O`, for which the MIC with Escherichia coli is 0.1 µg/mL (≈ 0.137 µM); in the assay with Pseudomonas aeruginosa [1], 0.05 µg/mL (≈ 0.0686 µM); in the assay with Pseudomonas aeruginosa [2], no more than 0.025 µg/mL; against Staphylococcus aureus it was 3.13 µg/mL (≈ 4.29 µM).
For `CC(C)(O/N=C(\C(=O)N[C@@H]1C(=O)N2C(C(=O)[O-])=C(CSc3cc[n+](Cc4cc(O)c(O)cn4)cc3)CS[C@H]12)c1csc(N)n1)C(=O)O` the same measures were 0.78 µg/mL (≈ 1.11 µM), 0.39 µg/mL (≈ 0.556 µM), 0.05 µg/mL (≈ 0.0712 µM) and 6.25 µg/mL (≈ 8.91 µM).
With `Nc1nc(/C(=N/OCC(=O)O)C(=O)N[C@@H]2C(=O)N3C(C(=O)[O-])=C(CSc4cc[n+](CC(=O)c5ccc(O)c(O)c5)cc4)CS[C@H]23)cs1`, the ED50 with Mus musculus [3] is greater than 20 mg/kg. Further, the MIC with Escherichia coli is 0.05 µg/mL (≈ 0.0714 µM); against Pseudomonas aeruginosa [1] it was 0.1 µg/mL (≈ 0.143 µM); against Pseudomonas aeruginosa [5], 0.1 µg/mL (≈ 0.143 µM); in the assay on Pseudomonas aeruginosa [2], no more than 0.025 µg/mL; with Staphylococcus aureus, 3.13 µg/mL (≈ 4.47 µM). Besides, the Challenge dose in the assay filed under Mus musculus [4] was determined as 1000000 cells mouse-1.
Regarding `CC(C)(O/N=C(\C(=O)N[C@@H]1C(=O)N2C(C(=O)[O-])=C(C[n+]3ccccc3)CS[C@H]12)c1csc(N)n1)C(=O)O` [CEFTAZIDIME], the MIC against Escherichia coli amounted to 0.39 µg/mL (≈ 0.714 µM); against Mus musculus [6], 1.56 µg/mL (≈ 2.85 µM); in the assay on Pseudomonas aeruginosa [1], 1.56 µg/mL (≈ 2.85 µM); in the assay with Pseudomonas aeruginosa [2] it was 0.78 µg/mL (≈ 1.43 µM); against Staphylococcus aureus it was 3.13 µg/mL (≈ 5.73 µM). Besides, the ED50 in the assay on Mus musculus [6] came out at 34.4 mg/kg. For the same compound, the Challenge dose in the assay filed under Mus musculus [4] was 1000000 cells mouse-1.
In the case of `CO/N=C(\C(=O)N[C@@H]1C(=O)N2C(C(=O)[O-])=C(CSc3cc[n+](CC(=O)c4ccc(O)c(O)c4)cc3)CS[C@H]12)c1csc(N)n1`, the MIC against Escherichia coli came out at 0.1 µg/mL (≈ 0.152 µM); against Pseudomonas aeruginosa [1], 0.39 µg/mL (≈ 0.594 µM); against Pseudomonas aeruginosa [2], 0.05 µg/mL (≈ 0.0761 µM); against Staphylococcus aureus, 0.78 µg/mL (≈ 1.19 µM).
